The first assay deals with Dengue-2 (Strain New Guinea C). The experiment in a line: Viral yield assay against Dengue-2 in Vero cells. Format: cell-based, Dengue virus. The note with it: Dengue virus, Vero, 48 h, read-out: Activity (EC50 class) against Dengue-2 Virus in Vero cells. The procedure:
Compounds that were active in the primary screen were tested for activity in viral yield assays. […] Vero cells in 12-well plates were infected with dengue-2 virus at a multiplicity of infection (MOI) of 0.1, treated with compound (or DMSO as a control), incubated at 37° C., harvested 48 hours post infection and titered on Vero cells as described above. The EC50 was calculated through ExcelFit. Activities against other serotypes of dengue virus were determined in a similar way.
For `CCCCOc1ccc(NC(=O)c2sc3nc(N)c(C#N)cc3c2N)cc1` [Compound 70, 3,6-Diamino-5-cyano-thieno[2,3-b]pyridine-2-carboxylic acid (4-butoxy-phenyl)-amide], the EC50 (usually the concentration at which the effect is half-maximal) fell in the range of 5 to 25 µM. For `Cc1nc2sc(C(N)=O)c(N)c2c(C)c1CC(=O)c1ccccc1` [Compound 72, 3-Amino-4,6-dimethyl-5-(2-oxo-2-phenyl-ethyl)-thieno[2,3-b]pyridine-2-carboxylic acid amide], the EC50 lay within 5 to 25 µM. With `Nc1c(C(=O)Nc2ccccc2F)sc2nc3c(cc12)CCCC3` [Compound 78, 3-Amino-5,6,7,8-tetrahydro-thieno[2,3-b]quinoline-2-carboxylic acid (2-fluoro-phenyl)-amide], the EC50 was 5 to 25 µM. As for `Nc1c(C(=O)Nc2ccccc2F)sc2nc3c(cc12)CCCCC3` [Compound 79, 3-Amino-6,7,8,9-tetrahydro-5H-1-thia-10-aza-cyclohepta[f]indene-2-carboxylic acid (2-fluoro-phenyl)-amide], the EC50 lay within 5 to 25 µM. On to `Nc1c(C(=O)Nc2ccc(S(N)(=O)=O)cc2)sc2nc3c(cc12)CCCCC3` [Compound 80, 3-Amino-6,7,8,9-tetrahydro-5H-1-thia-10-aza-cyclohepta[f]indene-2-carboxylic acid (4-sulfamoyl-phenyl)-amide], for which the EC50 fell in the range of 5 to 25 µM. Same read-out and setting: to `COCc1cc(C)nc2sc(C(=O)Nc3ccc(Cl)cc3)c(N)c12` [Compound 81, 3-Amino-4-methoxymethyl-6-methyl-thieno[2,3-b]pyridine-2-carboxylic acid (4-chloro-phenyl)-amide] belongs 5 to 25 µM; to `CCc1nnc(NC(=O)c2sc3nc(-c4cccs4)cc(C(F)(F)F)c3c2N)s1` [Compound 90, 3-Amino-6-thiophen-2-yl-4-trifluoromethyl-thieno[2,3-b]pyridine-2-carboxylic acid (5-ethyl-[1,3,4]thiadiazol-2-yl)-amide], 5 to 25 µM; to `Nc1c(C(=O)Nc2ccc3ccccc3c2)sc2nc3c(cc12)CCC3` [Compound 91, 3-Amino-6,7-dihydro-5H-cyclopenta[b]thieno[3,2-e]pyridine-2-carboxylic acid naphthalen-2-ylamide], 5 to 25 µM.

Staying with this assay, now noted: Dengue virus; Vero cells, MOI 0.1, harvested 48 hours post infection; read-out: Activity (EC50 class) against Dengue-2 Virus in Vero cells.
Take `CC(C)N1CCc2nc3sc(C(=O)Nc4ccc(OC(F)(F)F)cc4)c(N)c3cc2C1` [Compound 59, 3-Amino-6-isopropyl-5,6,7,8-tetrahydro-thieno[2,3-b][1,6]naphthyridine-2-carboxylic acid (4-trifluoromethoxy-phenyl)-amide]: the half-maximal effective concentration (EC50) is less than 5 µM.

As for `CC(C)N1CCc2nc3sc(C(=O)Nc4ccc(C(F)(F)F)cc4)c(N)c3cc2C1` [Compound 60, 3-Amino-6-isopropyl-5,6,7,8-tetrahydro-thieno[2,3-b][1,6]naphthyridine-2-carboxylic acid (4-trifluoromethyl-phenyl)-amide], the EC50 was less than 5 µM.

As to `Cc1ccc(F)cc1NC(=O)c1sc2nc3c(cc2c1N)CN(C)CC3` [Compound 61, 3-Amino-6-methyl-5,6,7,8-tetrahydro-thieno[2,3-b][1,6]naphthyridine-2-carboxylic acid (5-fluoro-2-methyl-phenyl)-amide], the EC50 was less than 5 µM. On the same count and under the same terms, to `CN1CCc2nc3sc(C(=O)Nc4nc5ccccc5s4)c(N)c3cc2C1` [Compound 62, 3-Amino-6-methyl-5,6,7,8-tetrahydro-thieno[2,3-b][1,6]naphthyridine-2-carboxylic acid benzothiazol-2-ylamide] belongs less than 5 µM; to `CN1CCc2nc3sc(C(=O)Nc4cc(Br)ccc4Br)c(N)c3cc2C1` [Compound 63, 3-Amino-6-methyl-5,6,7,8-tetrahydro-thieno[2,3-b][1,6]naphthyridine-2-carboxylic acid (2,5-dibromo-phenyl)-amide], less than 5 µM; to `CN1CCc2nc3sc(C(=O)Nc4ccc(Cl)cc4)c(N)c3c(-c3ccccc3)c2C1` [Compound 64, 3-Amino-6-methyl-4-phenyl-5,6,7,8-tetrahydro-thieno[2,3-b][1,6]naphthyridine-2-carboxylic acid (4-chloro-phenyl)-amide], less than 5 µM.

With `CCc1nnc(NC(=O)c2sc3nc(C)cc(C(F)(F)F)c3c2N)s1` [Compound 65, 3-Amino-6-methyl-4-trifluoromethyl-thieno[2,3-b]pyridine-2-carboxylic acid (5-ethyl-[1,3,4]thiadiazol-2-yl)-amide], the EC50 was in the range of 5 to 25 µM. As for `Nc1c(C(=O)Nc2ccccc2)sc2nc(-c3ccccc3)cc(-c3ccccc3)c12` [Compound 66, 3-Amino-4,6-diphenyl-thieno[2,3-b]pyridine-2-carboxylic acid phenylamide], the EC50 lay in the range of 5 to 25 µM.

`COc1ccccc1-c1cc(-c2ccccc2)c2c(N)c(C(=O)NC3CC3)sc2n1` [Compound 67, 3-Amino-6-(2-methoxy-phenyl)-4-phenyl-thieno[2,3-b]pyridine-2-carboxylic acid cyclopropylamide]: the EC50 fell in the range of 5 to 25 µM. Same read-out and setting: to `COCc1cc(C)c2c(N)c(C(N)=O)sc2n1` [Compound 68, 3-Amino-6-methoxymethyl-4-methyl-thieno[2,3-b]pyridine-2-carboxylic acid amide] belongs 5 to 25 µM. Take `N#Cc1cc2c(N)c(C(=O)N(c3ccccc3)c3ccccc3)sc2nc1N` [Compound 69, 3,6-Diamino-5-cyano-thieno[2,3-b]pyridine-2-carboxylic acid diphenylamide]: the EC50 was 5 to 25 µM. Take `CCCc1ccc2c(N)c(C(N)=O)sc2n1` [Compound 71, 3-Amino-6-propyl-thieno[2,3-b]pyridine-2-carboxylic acid amide]: the EC50 fell in the range of 5 to 25 µM. Turning to `CCCc1ccc2c(N)c(C(=O)Nc3nc(C(F)(F)F)ccc3Cl)sc2n1` [Compound 73, 3-Amino-6-propyl-thieno[2,3-b]pyridine-2-carboxylic acid (3-chloro-6-trifluoromethyl-pyridin-2-yl)-amide], the EC50 is 5 to 25 µM. Turning to `COCc1cc(C)nc2sc(C(=O)Nc3cccc4ccccc34)c(N)c12` [Compound 74, 3-Amino-4-methoxymethyl-6-methyl-thieno[2,3-b]pyridine-2-carboxylic acid naphthalen-1-ylamide], the EC50 lay within 5 to 25 µM.

As to `CCOC(=O)c1cc2c(N)c(C(=O)Nc3cccc(C(F)(F)F)c3)sc2nc1N` [Compound 75, 3,6-Diamino-2-(3-trifluoromethyl-phenylcarbamoyl)-thieno[2,3-b]pyridine-5-carboxylic acid ethyl ester], the half-maximal effective concentration (EC50) was 5 to 25 µM.

Regarding `COCc1cc(C)nc2sc3c(=O)[nH]nnc3c12` [Compound 76, 9-Methoxymethyl-7-methyl-3H-pyrido[3′,2′:4,5]thieno[3,2-d][1,2,3]triazin-4-one], the EC50 was in the range of 5 to 25 µM. With `CN(C)c1ccnc2sc(C(=O)NCc3ccccc3)c(N)c12` [Compound 77, 3-Amino-4-dimethylamino-thieno[2,3-b]pyridine-2-carboxylic acid benzylamide], the EC50 was in the range of 5 to 25 µM. With `NC(=O)c1sc2nc3c(cc2c1N)CCCCC3` [Compound 82, 3-Amino-6,7,8,9-tetrahydro-5H-1-thia-10-aza-cyclohepta[f]indene-2-carboxylic acid amide], the EC50 fell in the range of 5 to 25 µM. With `Cc1cc(C)c2c(N)c(C(=O)Nc3ccc4ccccc4c3)sc2n1` [Compound 83, 3-Amino-4,6-dimethyl-thieno[2,3-b]pyridine-2-carboxylic acid naphthalen-2-ylamide], the half-maximal effective concentration (EC50) fell in the range of 5 to 25 µM. Take `COc1ccc(-c2c(C#N)c(N)nc3sc(C(=O)Nc4ccc(F)cc4)c(N)c23)cc1OC` [Compound 84, 3,6-Diamino-5-cyano-4-(3,4-dimethoxy-phenyl)-thieno[2,3-b]pyridine-2-carboxylic acid (4-fluoro-phenyl)-amide]: the concentration for a half-maximal effect (EC50) fell in the range of 5 to 25 µM.

As for `CCN(CC)C(=O)c1sc2nc(-c3cccs3)cc(C(F)(F)F)c2c1N` [Compound 85, 3-Amino-6-thiophen-2-yl-4-trifluoromethyl-thieno[2,3-b]pyridine-2-carboxylic acid diethylamide], the EC50 was 5 to 25 µM. On to `Nc1c(C(=O)Nc2nccs2)sc2nc3c(c(-c4ccco4)c12)CCCC3` [Compound 86, 3-Amino-4-furan-2-yl-5,6,7,8-tetrahydro-thieno[2,3-b]quinoline-2-carboxylic acid thiazol-2-ylamide], for which the EC50 is 5 to 25 µM. As to `Nc1c(C(=O)Nc2ccc3ccccc3c2)sc2nc3c(cc12)CCCC3` [Compound 87, 3-Amino-5,6,7,8-tetrahydro-thieno[2,3-b]quinoline-2-carboxylic acid naphthalen-2-ylamide], the EC50 was in the range of 5 to 25 µM.

For the compound `Nc1c(C(=O)Nc2nnc(-c3ccccc3)s2)sc2nc3c(cc12)CCC3` [Compound 88, 3-Amino-6,7-dihydro-5H-cyclopenta[b]thieno[3,2-e]pyridine-2-carboxylic acid (5-phenyl-[1,3,4]thiadiazol-2-yl)-amide], the concentration for a half-maximal effect (EC50) is 5 to 25 µM. `Nc1c(C(=O)N2CCOCC2)sc2nc(-c3ccccc3)cc(C(F)(F)F)c12` [Compound 89, (3-Amino-6-phenyl-4-trifluoromethyl-thieno[2,3-b]pyridin-2-yl)-morpholin-4-yl-methanone]: the EC50 is 5 to 25 µM. `CCc1nnc(NC(=O)c2sc3nc4c(cc3c2N)CCCC4)s1` [Compound 92, 3-Amino-5,6,7,8-tetrahydro-thieno[2,3-b]quinoline-2-carboxylic acid (5-ethyl-[1,3,4]thiadiazol-2-yl)-amide]: the EC50 lay within 5 to 25 µM. The same measure, in the same setting: with `CCc1nc2sc(C(=O)Nc3cccc(C(F)(F)F)c3)c(N)c2cc1C` [Compound 93, 3-Amino-6-ethyl-5-methyl-thieno[2,3-b]pyridine-2-carboxylic acid (3-trifluoromethyl-phenyl)-amide] the figure was 5 to 25 µM.

For the origin of these results see patent US20170121344A1 (Siga Technologies, Inc., priority 2009, published 2017).
